Article PMC6941952, “A homogeneous bioluminescent immunoassay to probe cellular signaling pathway regulation” (Communications Biology, 2020)
Several values for one entry are separate records, joined by “and”; a condition that tells them apart may be missing. Equal values may be shown once.

Test system: phospho-IκBα (Ser32)
Experiment: NanoBiT cell-based immunoassay, phosphorylated IκBα in MCF-7 cells
Design: species or system human
Settings: for Fold change (TNF-treated /Non-treated): P-IkB; for P-IkB Average / Average: background subtracted
Method: Prior to NanoBiT Cell-Based Immunoassay, 50,000 cells were seeded in 160 µl of complete growth media per well of a 96-well plate and incubated overnight. The cells were checked under microscope and it was determined that 50,000 cells per well in 96-well plate is under 90% confluency for all cells tested. If necessary, the cell culture media were replaced with serum-free media after the cells were stably adherent on the plate and incubated overnight. To treat cells with activators or inhibitors, medium was changed to 30 µl of medium containing inhibitors. If activation of a specific pathway is needed, the cells were stimulated with 10 µl of medium containing activators. To lyse the cells, 10 µl of lysis buffer containing 0.1% digitonin diluted in 1X immunoassay buffer with protease and phosphatase inhibitors was added and the plates were mixed vigorously for 20 min. Then, 50 µl of an antibody mix containing two primary antibodies against the target protein and NanoBiT detecting antibodies (0.3 µl each per well), diluted in 1X immunoassay buffer was added to the lysates. The plates were incubated at 23 °C for 90 min, followed by the addition of 25 µl of Nano-Glo® reagent consisting of Nano-Glo® Luciferase Assay Substrate mixed with 1X immunoassay buffer. Luminescence was measured using a plate-reading luminometer.
In all, 50,000 MCF-7 cells were seeded in 160 µl complete growth medium per well of a 96-well plate and incubated overnight. Half of the cells were treated with 50 ng per ml TNFα and half with vehicle. Cells were lysed as described above and a mixture of NanoBiT secondary antibodies with primary antibodies at the matrix concentrations described in Fig. 2a were added. After 90 min incubation, the Nano-Glo® reagent was added to the reactions as described above and luminescence was measured using a plate-reading luminometer.
Single dose or dose response inhibitor treatments were performed prior to activation of the pathways as follows. For IκBα, the cells were treated in 30 µl medium with IKK16 or MG132 for 60 min before the addition of 10 µl of DMEM containing appropriate concentration of TNFα. To measure phosphorylation of AKT or STAT3, the corresponding NanoBiT immunoassays were developed with MCF-7 or A431 cells, respectively, according the same scheme used to develop the IκBα assay using the primary antibodies for AKT and STAT3 described in the reagents section. For the AKT assay, MCF-7 cells were incubated overnight in phenol-red free DMEM medium (Gibco #21063-029) without serum. Treatment with LY294002 was performed in 30 µl medium and cells were incubated for 60 min before the addition of 1 µM Insulin. To measure STAT3 phosphorylation, A431 cells were incubated overnight in DMEM medium without serum. […] After addition of the stimulators, the cells were incubated for additional times as follows. IκBα phosphorylation and degradation analyses required both time courses and single time points as described in figures. […] The NanoBiT immunoassay protocol was followed as described above.
All 96-well assay plates were read using a GloMax® 96 Microplate Luminometer from Promega. The instrument was set to 0.5 s integration time. In order to obtain net change of signal, the reagent background values (signal from the well containing all reagent except primary antibodies) were subtracted from the sample values. To plot and analyze the data, Microsoft Excel and GraphPad Prism® Software were used. IC50 values were determined by using a nonlinear regression fit to a sigmoidal dose response (variable slope).

[1] = Figure 2b, Ab incubation 5 min, listed as TNF
[2] = Figure 2b, Ab incubation 10 min, listed as TNF
[3] = Figure 2b, Ab incubation 60 min, listed as TNF
[4] = Figure 2b, Ab incubation 90 min, listed as TNF
[5] = Figure 2b, Ab incubation 120 min, listed as TNF
[6] = Figure 2b, Ab incubation 10 min
[7] = Figure 2b, Ab incubation 30 min
[8] = Figure 2b, Ab incubation 60 min
[9] = Figure 2b, Ab incubation 90 min
[10] = Figure 2b, Ab incubation 120 min
[11] = Figure 2c, Cell # 3500, listed as TNF
[12] = Figure 2c, Cell # 7000, listed as TNF
[13] = Figure 2c, Cell # 14000, listed as TNF
[14] = Figure 2c, Cell # 21000, listed as TNF
[15] = Figure 2c, Cell # 28000, listed as TNF
[16] = Figure 2c, Cell # 35000, listed as TNF
[17] = Figure 2c, Cell # 42000, listed as TNF
[18] = Figure 2c, Cell # 49000, listed as TNF
[19] = Figure 2c, Cell # 56000, listed as TNF
[20] = Figure 2c, Cell # 63000, listed as TNF
[21] = Figure 3a and 3b, listed as TNF
[22] = No MG132, TNF 2 min, listed as TNF
[23] = No MG132, TNF 4 min, listed as TNF
[24] = No MG132, TNF 10 min, listed as TNF
[25] = No MG132, TNF 12 min, listed as TNF
[26] = No MG132, TNF 15 min, listed as TNF
[27] = No MG132, TNF 30 min, listed as TNF
[28] = plate #1, IkB Ab #1 75 ng/ml, P-IkB Ab #1 75 ng/ml, TNF

TNFα
P-IkB Raw data [1]: 13050 | P-IkB Subtract reagent background [1]: 1653 and 2223 and 1733 | P-IkB Raw data [2]: 15430 | P-IkB Subtract reagent background [2]: 4075 and 4145 and 2725 | P-IkB Subtract reagent background (Figure 2b, Ab incubation 30 min, listed as TNF): 11622 and 12702 and 12152 | P-IkB Raw data [3]: 35930 | P-IkB Subtract reagent background [3]: 23000 and 23900 and 26790 | P-IkB Raw data [4]: 44160 | P-IkB Subtract reagent background [4]: 32005 and 32085 and 32105 | P-IkB Raw data [5]: 26480 | P-IkB Subtract reagent background [5]: 19503 and 18993 and 21543 | Fold change (TNF-treated /Non-treated) (Figure 2b, Ab incubation 5 min): -51 | Fold change (TNF-treated /Non-treated) [6]: 25 | Fold change (TNF-treated /Non-treated) [7]: 10 | Fold change (TNF-treated /Non-treated) [8]: 14 | Fold change (TNF-treated /Non-treated) [9]: 13 | Fold change (TNF-treated /Non-treated) [10]: 12 | P-IkB Average (Figure 2b, Ab incubation 5 min): 1870 | P-IkB Average [6]: 3648 | P-IkB Average [7]: 12158 | P-IkB Average [8]: 24563 | P-IkB Average [9]: 32065 | P-IkB Average [10]: 20013 | Raw data [11]: 19860 and 20790 | Subtract background [11]: 6010 and 6150 | Raw data [12]: 22450 and 23090 | Subtract background [12]: 8600 and 8450 | Raw data [13]: 26500 and 26620 | Subtract background [13]: 12650 and 11980 | Raw data [14]: 26350 and 27260 | Subtract background [14]: 12500 and 12620 | Raw data [15]: 29180 and 29230 | Subtract background [15]: 15330 and 14590 | Raw data [16]: 32490 and 30000 | Subtract background [16]: 18640 and 15360 | Raw data [17]: 35680 and 35010 | Subtract background [17]: 21830 and 20370 | Raw data [18]: 36150 and 38410 | Subtract background [18]: 22300 and 23770 | Raw data [19]: 38800 and 38570 | Subtract background [19]: 24950 and 23930 | Raw data [20]: 40840 and 40330 | Subtract background [20]: 26990 and 25690 | Average (Figure 2c, Cell # 3500): 6080 | Average (Figure 2c, Cell # 7000): 8525 | Average (Figure 2c, Cell # 14000): 12315 | Average (Figure 2c, Cell # 21000): 12560 | Average (Figure 2c, Cell # 28000): 14960 | Average (Figure 2c, Cell # 35000): 17000 | Average (Figure 2c, Cell # 42000): 21100 | Average (Figure 2c, Cell # 49000): 23035 | Average (Figure 2c, Cell # 56000): 24440 | Average (Figure 2c, Cell # 63000): 26340 | P-IkB Average (Figure 3a and 3b): 18603 | P-IkB Raw data [21]: 40970 and 39480 and 37340 | P-IkB Subtract reagent background [21]: 20310 and 18820 and 16680 | P-IkB Average (No MG132, TNF 2 min): 1340 | P-IkB Raw data [22]: 17500 and 17960 and 17760 and 18420 | P-IkB Subtract reagent background [22]: 930 and 1390 and 1190 and 1850 | P-IkB Average (No MG132, TNF 4 min): 2908 | P-IkB Raw data [23]: 18550 and 18960 and 19930 and 20470 | P-IkB Subtract reagent background [23]: 1980 and 2390 and 3360 and 3900 | P-IkB Average (No MG132, TNF 6 min): 9185 | P-IkB Raw data (No MG132, TNF 6 min, listed as TNF): 21700 and 24830 and 27800 and 28690 | P-IkB Average (No MG132, TNF 8 min): 17540 | P-IkB Raw data (No MG132, TNF 8 min, listed as TNF): 27040 and 33390 and 37550 and 38460 | P-IkB Average (No MG132, TNF 10 min): 21585 | P-IkB Raw data [24]: 32290 and 37160 and 40510 and 42660 | P-IkB Subtract reagent background [24]: 15720 and 20590 and 23940 and 26090 | P-IkB Average (No MG132, TNF 12 min): 19345 | P-IkB Raw data [25]: 33820 and 35920 and 37120 and 36800 | P-IkB Subtract reagent background [25]: 17250 and 19350 and 20550 and 20230 | P-IkB Average (No MG132, TNF 15 min): 13560 | P-IkB Raw data [26]: 29860 and 30140 and 30400 and 30120 | P-IkB Subtract reagent background [26]: 13290 and 13570 and 13830 and 13550 | P-IkB Average (No MG132, TNF 30 min): 3855 | P-IkB Raw data [27]: 20170 and 19970 and 20370 and 21190 | P-IkB Subtract reagent background [27]: 3600 and 3400 and 3800 and 4620 | Raw data [28]: 32920 | Subtract reagent background [28]: 14010
